Data: patent publication US20220041616A1, “SPIRO COMPOUND AND MEDICAL USES THEREOF” (The National Institutes of Pharmaceutical R&D Co., Ltd., priority 2018, published 2022)

target: T1, ACC1 (Homo sapiens, UniProt Q13085); assay: In vitro inhibition of ACC1 activity, ADP-Glo Kinase Analysis; assay type: biochemical; conditions: 1 nM ACC1, 10 μM acetyl-CoA, 20 μM ATP
T1 construct: purchased BPS bioscience
Description: ADP-Glo™ Kinase Analysis Kit (Promega) is used for the in vitro analysis of the inhibitory effect of the present compound on ACC1 or ACC2. ADP-Glo™ Kinase Analysis is a kinase detection analysis of luminescence method. ADP is produced in the process of catalyzing the substrate by ACC. ADP is converted into ATP which is then converted into light by Ultra-Glo™ luciferase. ADP is quantified by detecting the light signal, thus the enzyme activity can be measured by quantification of the ADP amount produced during the enzyme reaction. The analysis is carried out in two steps: in the first step, after the kinase reaction, a portion of ADP-Glo™ reagent equal in volume to the kinase reaction system is added to terminate the reaction and consume the remaining ATP; in the second step, a kinase detection reagent is added, which not only converts ADP into ATP, but also uses a coupled luciferase/luciferin reaction to detect newly synthesized ATP.
a. 10 mM compound stock solution (the present compound was dissolved in 100% DMSO to prepare the 10 mM stock solution) was diluted 50-fold to 200 μM with 100% DMSO, and then diluted in equal proportions (1:3) in a 96-well dilution plate (249944, Nunc). The gradient concentrations of the compound were 200 μM, 66.67 μM, 22.22 μM, 7.41 μM, 2.47 μM, 0.823 μM, 0.274 μM, 0.0914 μM, 0.0305 μM, 0.0102 μM, 0.00339 μM and 0.00113 μM.
b. 4.5 μL ACC1 working solution (BPS bioscience) (2.22 nM) was added to each well of a 384-well test plate (6007290, Perkin Elmer).
c. 0.5 μL of the serially diluted compound (prepared in step a) was added to each well of the 384-well test plate, which was centrifuged at 1000 rpm for 1 min and then incubated at room temperature for 15 min. The reaction system with compound GS-0976 at a final concentration of 0.1 μM was used as positive control; the reaction system with no compound but DMSO at a final concentration of 5% was used as negative control.
d. In the 384-well test plate (prepared in step c), 5 μL of the substrate working solution was added to each well to start the enzymatic reaction. The plate was centrifuged at 1000 rpm for 1 min and then incubated at room temperature for 30 min. The final concentration of each component in the ACC1 reaction system: 1 nM ACC1, 10 μM acetyl-CoA, 30 mM NaHCO3, and 20 μM ATP. The final concentration of each component in the ACC2 reaction system: 1.1 nM ACC2, 20 μM acetyl-CoA, 20 mM NaHCO3, and 15 μM ATP. Final concentrations of test compounds: 10 μM, 3.33 μM, 1.11 μM, 0.37 μM, 0.123 μM, 0.0411 μM, 0.0137 μM, 0.00457 μM, 0.00152 μM, 0.00051 μM, 0.00017 μM and 0.000056 μM. The final concentration of DMSO was 5% (v/v).
e. 10 μL of ADP-Glo reagent was added to each well of the 384-well test plate (prepared in step d), which was centrifuged at 1000 rpm for 1 min and then incubated at room temperature for 40 min.
f. 20 μL of kinase detection reagent was added to each well of the 384-well test plate (prepared in step e), which was centrifuged at 1000 rpm for 1 min and then incubated at room temperature for 40 min.
g. The chemiluminescence signal was detected with Perkin Elmer EnVision 2104.
ACC1 working solution and substrate working solution were both prepared with 1× kinase reaction buffer. The buffer was consisting of 50 mM HEPES buffer, 2 mM magnesium chloride, 0.01% BRIJ-35, 2 mM potassium citrate, 50 μg/mL BSA and 2 mM DTT.
The average value of the positive and negative control well and the standard deviation were calculated. The inhibition percentage was calculated according to the following formula: 100×[1−(compound−average value of positive control)/(average value of negative control-average value of positive control)].
IC50 of the compound was obtained using GraphPad Prism 6 software according to the following nonlinear fitting formula:
Y=Bottom+(Top−Bottom)/(1+10^((Log IC50−X)×Hillslope)), […]

Compound	IC50
7′-(2-(2-methoxyphenyl)-2-((tetrahydro-2H-pyran-4-yl)oxy)ethyl)-3′-methyl-2′-(oxazol-2-yl)-4′,6′-dioxo-6′,7′-dihydro-4′H-spiro[cyclohexane-1,5′-thieno[2,3-b]pyridine]-3-carboxylic Acid [Compound 7a]	> 500 nM
7′-(2-(2-methoxyphenyl)-2-((tetrahydro-2H-pyran-4-yl)oxy)ethyl)-3′-methyl-2′-(oxazol-2-yl)-4′,6′-dioxo-6′,7′-dihydro-4′H-spiro[cyclohexane-1,5′-thieno[2,3-b]pyridine]-3-carboxylic Acid [Compound 7b]	100 to 500 nM
Cc1c(-c2ncco2)sc2c1C(=O)C1(CCC(C(=O)O)C1)C(=O)N2CC(OC1CCOCC1)c1ccccc1 (mixture of isomers) [Compound 3, 3′-methyl-2′-(oxazol-2-yl)-4′,6′-dioxo-7′-(2-phenyl-2-((tetrahydro-2H-pyran-4-yl)oxy)ethyl)-6′,7′-dihydro-4′H-spiro[cyclopentane-1,5′-thieno[2,3-b]pyridine]-3-carboxylic Acid]	100 to 500 nM
Cc1c(-c2ncco2)sc2c1C(=O)C1(CCC(C)(C(=O)O)C1)C(=O)N2CC(OC1CCOCC1)c1ccccc1 (mixture of isomers) [Compound 4, 3,3′-dimethyl-2′-(oxazol-2-yl)-4′,6′-dioxo-7′-(2-phenyl-2-((tetrahydro-2H-pyran-4-yl)oxy)ethyl)-6′,7′-dihydro-4′H-spiro[cyclopentane-1,5′-thieno[2,3-b]pyridine]-3-carboxylic Acid]	100 to 500 nM
COc1ccccc1C(CN1C(=O)C2(CCC(C(=O)O)C2)C(=O)c2c1sc(-c1ncco1)c2C)OC1CCOCC1 (mixture of isomers) [Compound 5, 7′-(2-(2-methoxyphenyl)-2-((tetrahydro-2H-pyran-4-yl)oxy)ethyl)-3′-methyl-2′-(oxazol-2-yl)-4′,6′-dioxo-6′,7′-dihydro-4′H-spiro[cyclopentane-1,5′-thieno[2,3-b]pyridine]-3-carboxylic Acid]	< 10 nM
COc1ccccc1C(CN1C(=O)C2(CCC(C(=O)O)C2)C(=O)c2c1sc(-c1ncco1)c2C)OC1CCOCC1 (mixture of isomers) [Compound 5e, 7′-(2-(2-methoxyphenyl)-2-((tetrahydro-2H-pyran-4-yl)oxy)ethyl)-3′-methyl-2′-(oxazol-2-yl)-4′,6′-dioxo-6′,7′-dihydro-4′H-spiro[cyclopentane-1,5′-thieno[2,3-b]pyridine]-3-carboxylic Acid]	10 to 100 nM
Cc1c(-c2ncco2)sc2c1C(=O)C1(CCC(C(=O)O)CC1)C(=O)N2CC(OC1CCOCC1)c1ccccc1 (mixture of isomers) [Compound 6, 3′-methyl-2′-(oxazol-2-yl)-4′,6′-dioxo-7′-(2-phenyl-2-((tetrahydro-2H-pyran-4-yl)oxy)ethyl)-6′,7′-dihydro-4′H-spiro[cyclohexane-1,5′-thieno[2,3-b]pyridine]-4-carboxylic acid]	100 to 500 nM
Cc1c(-c2ncco2)sc2c1C(=O)C1(CCC1)C(=O)N2CC(OC1CCOCC1)c1ccccc1 (racemic) [Compound 1, 3′-methyl-2′-(oxazol-2-yl)-7′-(2-phenyl-2-((tetrahydro-2H-pyran-4-yl)oxy)ethyl)-4′H-spiro[cyclobutane-1,5′-thieno[2,3-b]pyridine]-4′,6′(7′H)-dione]	> 500 nM
COc1ccccc1C(CN1C(=O)C2(CCC(C(=O)O)C2)C(=O)c2c1sc(-c1ncco1)c2C)OC1CCOCC1 (single isomer, unassigned) [Compound 5a, 7′-(2-(2-methoxyphenyl)-2-((tetrahydro-2H-pyran-4-yl)oxy)ethyl)-3′-methyl-2′-(oxazol-2-yl)-4′,6′-dioxo-6′,7′-dihydro-4′H-spiro[cyclopentane-1,5′-thieno[2,3-b]pyridine]-3-carboxylic Acid]	10 to 100 nM
COc1ccccc1C(CN1C(=O)C2(CCC(C(=O)O)C2)C(=O)c2c1sc(-c1ncco1)c2C)OC1CCOCC1 (single isomer, unassigned) [Compound 5c, 7′-(2-(2-methoxyphenyl)-2-((tetrahydro-2H-pyran-4-yl)oxy)ethyl)-3′-methyl-2′-(oxazol-2-yl)-4′,6′-dioxo-6′,7′-dihydro-4′H-spiro[cyclopentane-1,5′-thieno[2,3-b]pyridine]-3-carboxylic Acid]	< 10 nM
COc1ccccc1C(CN1C(=O)C2(CCC(C(=O)O)C2)C(=O)c2c1sc(-c1ncco1)c2C)OC1CCOCC1 (single isomer, unassigned) [Compound 5d, 7′-(2-(2-methoxyphenyl)-2-((tetrahydro-2H-pyran-4-yl)oxy)ethyl)-3′-methyl-2′-(oxazol-2-yl)-4′,6′-dioxo-6′,7′-dihydro-4′H-spiro[cyclopentane-1,5′-thieno[2,3-b]pyridine]-3-carboxylic Acid]	< 10 nM
COc1ccccc1C(CN1C(=O)C2(CC(C(=O)O)C2)C(=O)c2c1sc(-c1ncco1)c2C)OC1CCOCC1 (single isomer, unassigned) [Compound 8a, 7′-(2-(2-methoxyphenyl)-2-((tetrahydro-2H-pyran-4-yl)oxy)ethyl)-3′-methyl-2′-(oxazol-2-yl)-4′,6′-dioxo-6′,7′-dihydro-4′H-spiro[cyclobutane-1,5′-thieno[2,3-b]pyridine]-3-carboxylic Acid]	10 to 100 nM
COc1ccccc1C(CN1C(=O)C2(CC(C(=O)O)C2)C(=O)c2c1sc(-c1ncco1)c2C)OC1CCOCC1 (single isomer, unassigned) [Compound 8b, 7′-(2-(2-methoxyphenyl)-2-((tetrahydro-2H-pyran-4-yl)oxy)ethyl)-3′-methyl-2′-(oxazol-2-yl)-4′,6′-dioxo-6′,7′-dihydro-4′H-spiro[cyclobutane-1,5′-thieno[2,3-b]pyridine]-3-carboxylic Acid]	100 to 500 nM
Cc1c(-c2ncco2)sc2c1C(=O)C1(CCCC1)C(=O)N2CC(OC1CCOCC1)c1ccccc1 (centres unmarked) [Compound 2, 3′-methyl-2′-(oxazol-2-yl)-7′-(2-phenyl-2-((tetrahydro-2H-pyran-4-yl)oxy)ethyl)-4′H-spiro[cyclopentane-1,5′-thieno[2,3-b]pyridine]-4′,6′(7′H)-dione]	> 500 nM
CNC(=O)[C@H]1C[C@@]2(C1)C(=O)c1c(sc(-c3ncco3)c1C)N(C[C@H](OC1CCOCC1)c1ccccc1OC)C2=O [Compound 9]	< 10 nM
COc1ccccc1[C@H](CN1c2sc(-c3ncco3)c(C)c2C(=O)[C@]2(C[C@H](C(=O)NCC(=O)O)C2)C1=O)OC1CCOCC1 [Compound 10, ((1s,3S)-7′-((R)-2-(2-methoxyphenyl)-2-((tetrahydro-2H-pyran-4-yl)oxy)ethyl)-3′-methyl-2′-(oxazol-2-yl)-4′,6′-dioxo-6′,7′-dihydro-4′H-spiro[cyclobutane-1,5′-thieno[2,3-b]pyridine]-3-carbonyl)glycine]	< 10 nM
COC(=O)CNC(=O)[C@H]1C[C@@]2(C1)C(=O)c1c(sc(-c3ncco3)c1C)N(C[C@H](OC1CCOCC1)c1ccccc1OC)C2=O [Compound 10-1, methyl ((1s,3S)-7′-((R)-2-(2-methoxyphenyl)-2-((tetrahydro-2H-pyran-4-yl)oxy)ethyl)-3′-methyl-2′-(oxazol-2-yl)-4′,6′-dioxo-6′,7′-dihydro-4′H-spiro[cyclobutane-1,5′-thieno[2,3-b]pyridine]-3-carbonyl)glycinate]	< 10 nM
